Assay results taken from patent US9376420B2 (YUHAN CORPORATION, priority 2012, dated 2016).

Target: T1, human LXRβ (Homo sapiens, UniProt P55055)
T1 construct: expressed in transfected cells; host or cells: HEK293 cells (ATCC CRL-1573), transient transfection with pFA-hLXRβ/GAL4 and pUAS
T1 sequence (P55055 222-460 limits assumed): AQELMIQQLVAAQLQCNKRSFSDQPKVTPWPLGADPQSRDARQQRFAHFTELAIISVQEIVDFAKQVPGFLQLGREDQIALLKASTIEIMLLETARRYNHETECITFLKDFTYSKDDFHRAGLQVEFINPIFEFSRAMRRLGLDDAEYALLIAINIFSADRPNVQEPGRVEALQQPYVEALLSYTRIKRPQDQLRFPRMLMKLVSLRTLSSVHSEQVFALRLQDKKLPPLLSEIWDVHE
Assay: Assay for Transcriptional Activity of LXRβ (GAL4-hLXRβ LBD luciferase reporter, transient transfection)
Assay type: cell-based
Details: HEK293 cells transfected with pFA-hLXRβ/GAL4 and pUAS, 24 hours; for Emax: fold value in comparison with the control (DMSO-treated group); for EC50: increase of transcriptional activity of LXRβ, average of three independent tests
In short: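 HEK293 cells transiently co-transfected with GAL4-hLXRβ LBD and 5×GAL4-UAS luciferase reporter, treated 24 h at 37 °C with compounds over 9 points (0.01–50 μM, half-log). Luminescence read after lysis; EC50 from four-parameter fit, mean of three independent tests, with a known LXR agonist as positive control.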

Emax [fold] | EC50 [nM] | Compound
34 | 10300 | Fc1ccc(N2N=C(C(F)(F)C(F)(F)F)CC2c2ccc(F)c(-c3ccc(Cl)nc3)c2)c(F)c1 (stereo not shown) [Example 130, 1-(2,4-difluoro-phenyl)-5-[4-fluoro-3-(6-chloro-pyridin-3-yl)-phenyl]-3-pentafluoroethyl-4,5-dihydro-1H-pyrazole]
62 | 302 | OC(C1=NN(c2ccccc2Cl)C(c2ccc(-c3cncnc3)cc2)C1)(C(F)(F)F)C(F)(F)F (stereo not shown) [Example 258, 1-(2-chloro-phenyl)-5-(4-pyrimidin-5-yl-phenyl)-3-[di-(trifluoromethyl)-hydroxy-methyl]-4,5-dihydro-1H-pyrazole]
48 | 1300 | CN(C)C(=O)N1CC=C(c2cccc(C3CC(C(F)(F)C(F)(F)F)=NN3c3ccc(F)cc3F)c2)CC1 (stereo not shown) [Example 64, 1-(2,4-difluoro-phenyl)-5-[3-(1-dimethylcarbamoyl-1,2,3,6-tetrahydropyridin-4-yl)-phenyl]-3-pentafluoroethyl-4,5-dihydro-1H-pyrazole]
64 | 778 | CS(=O)(=O)N1CCCN(c2ccc(C3CC(C(O)(C(F)(F)F)C(F)(F)F)=NN3c3ccccc3Cl)cc2)CC1 (stereo not shown) [Example 322, 1-(2-chloro-phenyl)-5-[4-(4-methanesulfonyl-homopiperazin-1-yl)-phenyl]-3-[di-(trifluoromethyl)-hydroxy-methyl]-4,5-dihydro-1H-pyrazole]
72 | 1470 | CCOc1cccc(-c2ccc(C3CC(C(O)(C(F)(F)F)C(F)(F)F)=NN3c3ccccc3F)cc2)c1 (stereo not shown) [Example 336, 5-(3′-ethoxy-biphenyl-4-yl)-1-(2-fluoro-phenyl)-3-[di-(trifluoromethyl)-hydroxy-methyl]-4,5-dihydro-1H-pyrazole]
67 | 3360 | CS(=O)(=O)N1CCN(c2cccc(C3CC(C(F)(F)C(F)(F)F)=NN3c3ccc(F)cc3F)c2)CC1 (stereo not shown) [Example 96, 1-(2,4-difluoro-phenyl)-5-[3-(4-methanesulfonyl-piperazin-1-yl)-phenyl]-3-pentafluoroethyl-4,5-dihydro-1H-pyrazole]
39 | 2030 | O=S1(=O)CCN(c2ccc(C3CC(C(O)(C(F)(F)F)C(F)(F)F)=NN3c3ccccc3Cl)cc2)CC1 (stereo not shown) [Example 329, 1-(2-chloro-phenyl)-5-[4-(1,1-dioxo-thiomorpholin-4-yl)-phenyl]-3-[di-(trifluoromethyl)-hydroxy-methyl]-4,5-dihydro-1H-pyrazole]
50 | 1210 | COc1ccc(-c2ccc(C3CC(C(O)(C(F)(F)F)C(F)(F)F)=NN3c3ccccc3Cl)cc2F)cc1 (stereo not shown) [Example 363, 1-(2-chloro-phenyl)-5-(2-fluoro-4′-methoxy-biphenyl-4-yl)-3-[di-(trifluoromethyl)-hydroxy-methyl]-4,5-dihydro-1H-pyrazole]
40 | 727 | CS(=O)(=O)c1cc(F)c(-c2ccc(C3CC(C(O)(C(F)(F)F)C(F)(F)F)=NN3c3ccccc3Cl)cc2)c(F)c1 (stereo not shown) [Example 288, 1-(2-chloro-phenyl)-5-[2′,6′-difluoro-4′-(methylsulfonyl)-biphenyl-4-yl]-3-[di-(trifluoromethyl)-hydroxy-methyl]-4,5-dihydro-1H-pyrazole]
27 | 19000 | Fc1ccc(N2N=C(C(F)(F)C(F)(F)F)CC2c2cccc(-c3ccccc3)c2)c(F)c1 (stereo not shown) [Example 94, 5-biphenyl-3-yl-1-(2,4-difluoro-phenyl)-3-pentafluoroethyl-4,5-dihydro-1H-pyrazole]
58 | 731 | CN(C)S(=O)(=O)N1CCN(c2ccc(C3CC(C(O)(C(F)(F)F)C(F)(F)F)=NN3c3ccc(F)cc3F)cc2)CC1 (stereo not shown) [Example 407, 1-(2,4-difluoro-phenyl)-5-[4-(4-dimethylsulfamoyl-piperazin-1-yl)-phenyl]-3-[di-(trifluoromethyl)-hydroxy-methyl]-4,5-dihydro-1H-pyrazole]
89 | 14100 | COc1ccc(-c2ccc(C3CC(C(O)(C(F)(F)F)C(F)(F)F)=NN3c3ccccc3Cl)cc2)cc1 (stereo not shown) [Example 242, 1-(2-chloro-phenyl)-5-(4′-methoxy-biphenyl-4-yl)-3-[di-(trifluoromethyl)-hydroxy-methyl]-4,5-dihydro-1H-pyrazole]
96 | 1950 | CCOc1cccc(-c2ccc(C3CC(C(O)(C(F)(F)F)C(F)(F)F)=NN3c3ccccc3Cl)cc2)c1 (stereo not shown) [Example 251, 1-(2-chloro-phenyl)-5-(3′-ethoxy-biphenyl-4-yl)-3-[di-(trifluoromethyl)-hydroxy-methyl]-4,5-dihydro-1H-pyrazole]
92 | 6860 | OC(C1=NN(c2ccccc2Cl)C(c2ccc(-c3cc4ccccc4o3)cc2)C1)(C(F)(F)F)C(F)(F)F (stereo not shown) [Example 262, 5-(4-benzofuran-2-yl-phenyl)-1-(2-chloro-phenyl)-3-[di-(trifluoromethyl)-hydroxy-methyl]-4,5-dihydro-1H-pyrazole]
68 | 283 | CS(=O)(=O)c1ccc(-c2ccc(C3CC(C(O)(C(F)(F)F)C(F)(F)F)=NN3c3ccccc3Cl)cc2F)cc1 (stereo not shown) [Example 365, 1-(2-chloro-phenyl)-5-(2-fluoro-4′-methylsulfonyl-biphenyl-4-yl)-3-[di-(trifluoromethyl)-hydroxy-methyl]-4,5-dihydro-1H-pyrazole]
57 | 26 | CS(=O)(=O)c1cccc(-c2ccnc(C3CC(C(F)(F)C(F)(F)F)=NN3c3ccc(F)cc3F)c2)c1 (stereo not shown) [Example 177, 1-(2,4-difluoro-phenyl)-5-[4-(3-methanesulfonyl-phenyl)-pyridin-2-yl]-3-pentafluoroethyl-4,5-dihydro-1H-pyrazole]
112 | 353 | CC(=O)c1ccc(-c2ccc(C3CC(C(O)(C(F)(F)F)C(F)(F)F)=NN3c3ccccc3Cl)c(F)c2)cc1 (stereo not shown) [Example 341, 1-(2-chloro-phenyl)-5-(4′-acetyl-3-fluoro-biphenyl-4-yl)-3-[di-(trifluoromethyl)-hydroxy-methyl]-4,5-dihydro-1H-pyrazole]
59 | 883 | CC(C)S(=O)(=O)N1CCN(c2ccc(C3CC(C(O)(C(F)(F)F)C(F)(F)F)=NN3c3ccccc3Cl)cc2)CC1 (stereo not shown) [Example 314, 1-(2-chloro-phenyl)-5-[4-(4-isopropylsulfonyl-piperazin-1-yl)-phenyl]-3-[di-(trifluoromethyl)-hydroxy-methyl]-4,5-dihydro-1H-pyrazole]
42 | 71 | C[S+]([O-])c1cccc(-c2ccc(C3CC(C(O)(C(F)(F)F)C(F)(F)F)=NN3c3ccccc3Cl)c(F)c2)c1 (stereo not shown) [Example 345, 1-(2-chloro-phenyl)-5-(3-fluoro-3′-methanesulfinyl-biphenyl-4-yl)-3-[di-(trifluoromethyl)-hydroxy-methyl]-4,5-dihydro-1H-pyrazole]
90 | 1110 | CC(C)(C)OC(=O)N1CC=C(c2ccc(C3CC(C(O)(C(F)(F)F)C(F)(F)F)=NN3c3ccccc3Cl)s2)CC1 (stereo not shown) [Example 416, 1-(2-chloro-phenyl)-5-[5-(1-BOC-1,2,3,6-tetrahydropyridin-4-yl)-thiophen-2-yl]-3-[di-(trifluoromethyl)-hydroxy-methyl]-4,5-dihydro-1H-pyrazole]
38 | 379 | CS(=O)(=O)N1CC=C(c2ccc(C3CC(C(O)(C(F)(F)F)C(F)(F)F)=NN3c3ccc(F)cc3F)cc2)CC1 (stereo not shown) [Example 400, 1-(2,4-difluoro-phenyl)-5-[4-(1-methanesulfonyl-1,2,3,6-tetrahydropyridin-4-yl)-phenyl]-3-[di-(trifluoromethyl)-hydroxy-methyl]-4,5-dihydro-1H-pyrazole]
101 | 780 | Cc1ccccc1-c1ccc(C2CC(C(O)(C(F)(F)F)C(F)(F)F)=NN2c2ccccc2Cl)c(F)c1 (stereo not shown) [Example 340, 1-(2-chloro-phenyl)-5-(3-fluoro-2′-methyl-biphenyl-4-yl)-3-[di-(trifluoromethyl)-hydroxy-methyl]-4,5-dihydro-1H-pyrazole]
61 | 746 | CS(=O)(=O)c1ccc(-c2cccc(C3CC(C(F)(F)C(F)(F)F)=NN3c3ccc(Cl)cc3F)c2)cc1 (stereo not shown) [Example 53, 1-(4-chloro-2-fluoro-phenyl)-5-(4′-methanesulfonyl-biphenyl-3-yl)-3-pentafluoroethyl-4,5-dihydro-1H-pyrazole]
105 | 842 | O=S(=O)(C1CC1)N1CCN(c2ccc(F)c(C3CC(C(F)(F)C(F)(F)F)=NN3c3ccc(F)cc3F)c2)CC1 (stereo not shown) [Example 146, 1-(2,4-difluoro)-5-[2-fluoro-5-(4-cyclopropanesulfonyl-piperazin-1-yl)-phenyl]-3-pentafluoroethyl-4,5-dihydro-1H-pyrazole]

Compound | Emax [fold] | EC50 [nM]
CS(=O)(=O)Nc1cccc(-c2ccc(C3CC(C(O)(C(F)(F)F)C(F)(F)F)=NN3c3ccccc3Cl)cc2)c1 (stereo not shown) [Example 310, 5-(3′-methanesulfonyl-aminobiphenyl-4-yl)-1-(2-chloro-phenyl)-3-[di-(trifluoromethyl)-hydroxy-methyl]-4,5-dihydro-1H-pyrazole] | 78 | 1150
1-(2,4-difluoro-phenyl)-5-(4-fluoro-3′-methanesulfonyl-biphenyl-3-yl)-3-pentafluoroethyl-4,5-dihydroxy-1H-pyrazole [Example 141] | 127 | 18
